From US20090012152A1, “Use of Tetramic Acid Derivatives for Controlling Insects from the Genus of the Plane Lice (Sternorrhyncha)” (Bayer CropScience Aktiengesellschaft, priority 2005, published 2009)

Tests used:
Assay type in all cases: in vivo
[1] = tested on: Dysaphis plantaginea; test: Example 41: apple trees treated against Dysaphis plantaginea (Henderson and Tilton); settings: live animals on shoots, % a.i.: imidacloprid 0.007, I-9 0.0144, I-2 0.0144; for Effect (%) 7 d: 7 d after treatment; for Effect (%) 14 d: 14 d after treatment
Description: (§1) In three replications, three about 8-year-old apple trees of the cultivar “Golden Delicious” are treated eradicatively against Dysaphis plantaginea and Aphis pomi. The application is carried out using a motor-operated barrow-mounted sprayer. Here, the active compounds Example (I-9) (240 SC) and Example (I-2) (240 SC) in the stated amount are tested against the commercial standard imidacloprid (200 SL), at the stated application rate. The application rate is 1200 l of water/ha.
(§2) Evaluation is carried out before and also 7 d and 14 d after the treatment by counting the live animals on the shoots. The efficacy is then calculated by calculating the effect on the population in percent according to Henderson and Tilton.

[2] = tested on: Aphis pomi; test: Example 41: apple trees treated against Aphis pomi (Henderson and Tilton); settings: live animals on shoots, % a.i.: imidacloprid 0.007, I-9 0.0144, I-2 0.0144; for Effect (%) 7 d: 7 d after treatment; for Effect (%) 14 d: 14 d after treatment
Description: as §1, §2

[3] = tested on: Bemisia tabaci; test: Example 32: bell peppers treated against Bemisia tabaci; settings: larvae on leaves, % a.i.: imidacloprid 0.02, I-9, I-2, I-11 0.0144; for Kill (%) 7 d: 7 d after second treatment; for Kill (%) 14 d: 14 d after second treatment; for Kill (%) 22 d: 22 d after second treatment
Description: In three replications, plots of a size of 10 m^2 with bell peppers of the cultivar “Italiano” are treated against Bemisia tabaci. The application is carried out using a motor-operated knapsack sprayer. Here, the active compounds Example (I-9) (240 SC), Example (I-2) (60 SC) and Example (I-11) (60 SC) and the commercial standard imidacloprid (200 SL) are applied at the stated application rates. Three applications at an interval of 14 or 15 days are carried out, at an application rate of 1000 or 1100 l of water/ha.
Evaluation is carried out 7, 14 and 22 days after the second treatment by rating the kill of the animals (larvae) on the leaves.

[4] = tested on: Bemisia tabaci; test: Example 33: cucumbers treated against Bemisia tabaci; settings: nymphs on leaves, % a.i.: imidacloprid 0.144, I-4 0.084; for Kill (%) 7 d: 7 d after first of two treatments; for Kill (%) 11 d: 11 d after first of two treatments; for Kill (%) 21 d: 21 d after first of two treatments
Description: In four replications, plots of a size of 26 m^2 with cucumbers of the cultivar “Beta alpha” are treated against Bemisia tabaci. The application is carried out using a knapsack sprayer operated with pressurized air. Here, the active compound Example (I-4) (240 SC), in a tank mix with 0.1% a.i. of rapeseed oil methyl ester (500 EW), and the commercial standard imidacloprid (200 SC) are tested at the stated application rates. Two applications are carried out, at an interval of 10 days. The application rate is 1000 l of water/ha.
Evaluation is carried out 7, 11 and 21 days after the first treatment by rating the kill of the animals (nymphs) on leaves.

[5] = tested on: Aphis gossypii; test: Example 52: melons treated against Aphis gossypii; settings: on shoots, g a.i./ha: imidacloprid 100, I-4 48; for Kill (%) 3 d: 3 d after treatment; for Kill (%) 7 d: 7 d after treatment
Description: In three replications, plots of a size of 15 m^2 with melons are treated against Aphis gossypii. The application is carried out using a knapsack sprayer operated with pressurized air. Here, the active compound Example (I-4) (240 SC), in a tank mix with 0.1% a.i. of rapeseed oil methyl ester (500 EW), and the standard imidacloprid (200 SL) are applied at the stated application rates. The application rate is 500 l of water/ha.
Evaluation is carried out 3 days and 7 days after the treatment by rating the kill of the animals on the shoots.

[6] = tested on: Aphis pomi; test: Example 40: apple trees treated against Aphis pomi; settings: population on shoots, % a.i.: imidacloprid 0.007, I-9 0.0144, I-4 0.0144; for Kill (%) 14 d: 14 d after treatment; for Kill (%) 21 d: 21 d after treatment
Description: In three replications, three about 22-year-old apple trees of the cultivar “Golden Delicious” are treated eradicatively against Dysaphis plantaginea and Aphis pomi. The application is carried out using a motor-operated barrow-mounted sprayer. Here, the active compounds Example (I-9) (240 SC) and Example (I-4) (240 SC) in the stated amount are tested against the commercial standard imidacloprid (200 SL), at the stated application rate. The application rate is 1200 l of water/ha.
Evaluation is carried out 14 d and 21 d after the treatment by rating the kill of the population on the shoots.

[7] = tested on: Phorodon humuli; test: Example 44: hop plants treated against hop aphid; settings: on leaves, % a.i.: imidacloprid 0.0053, I-9 0.0036, I-4 0.0084; for Kill (%) 6 d: 6 d after treatment; for Kill (%) 46 d: 46 d after treatment
Description: In two replications, about 4-year-old hop plants of the cultivar “Spalter” are treated against the hop aphid Phorodon humuli. The application is carried out using a knapsack sprayer operated with pressurized air. Here, the active compounds Example (I-9) (240 SC) and Example (I-4) (240 SC), in a tank mix with 0.1% a.i. of rapeseed oil methyl ester (500 EW), and the standard imidacloprid are applied at the stated application rates. The application rate is 1200 l of water/ha.
The first evaluation is carried out 6 days and the last evaluation 46 days after the treatment by rating the kill of the animals on the leaves.

[8] = tested on: Viteus vitifolii; test: Example 4: vines treated against Viteus vitifolii; settings: 60 days after last of three treatments, on roots, imidacloprid drip irrigation 560 g/ha, I-4 0.0168%, I-9 0.0144% leaf spray
Description: In four replications, three in each case about 12-year-old vines of the cultivar “Auvemat” are treated against Viteus vitifolii. As commercial standard, imidacloprid is used at the recommended application rate by drip irrigation. The application of the active compounds is by spray application to the leaves using a knapsack operated with pressurized air. Here, the active compounds Example (I-4) (240 SC) and Example (I-9) (240 SC) are applied in a tank mix with 0.1% a.i. of rapeseed oil methyl ester (500 EW) at the stated amount. There are three applications on day 1, 2 and 15. The application rate is 1776 l of water/ha.
Evaluation is carried out 60 days after the last treatment by rating the kill on the roots in percent.

[9] = tested on: Trioza erythreae; test: Example 8: orange trees treated against Trioza erythreae; settings: nymphs on branches, rate %: imidacloprid 0.004, I-4 0.0144; for Kill (%) 7 d: 7 d after first of two treatments; for Kill (%) 14 d: 14 d after first of two treatments; for Kill (%) 20 d: 20 d after first of two treatments
Description: In three replications, about 2-year-old orange trees are treated against Trioza erythreae. The application is carried out using a knapsack sprayer operated with pressurized air. Here, the active compound Example (I-4) (240 SC) is tested in a tank mix with 0.2% a.i. of rapeseed oil methyl ester (500 EW) against the commercial standard imidacloprid (100 SL) at the stated application rates. The application rate is 540 l of water/ha. Two treatments are carried out, at an interval of 7 days.
Evaluation is carried out 7, 14 and 20 days after the first treatment by rating the kill of the nymphs on the branches.

Structure (SMILES)	Effect (%) 7 d [1] [%]	Effect (%) 14 d [1] [%]	Effect (%) 7 d [2] [%]	Effect (%) 14 d [2] [%]	Kill (%) 7 d [3] [%]	Kill (%) 14 d [3] [%]	Kill (%) 22 d [3] [%]	Kill (%) 7 d [4] [%]	Kill (%) 11 d [4] [%]	Kill (%) 21 d [4] [%]	Kill (%) 3 d [5] [%]	Kill (%) 7 d [5] [%]	Kill (%) 14 d [6] [%]	Kill (%) 21 d [6] [%]	Kill (%) 6 d [7] [%]	Kill (%) 46 d [7] [%]	Kill (%) [8] [%]	Kill (%) 7 d [9] [%]	Kill (%) 14 d [9] [%]	Kill (%) 20 d [9] [%]
CCOC(=O)OC1=C(c2cc(C)ccc2Br)C(=O)NC12CCC(OC)CC2 (stereo not shown) [Example (I-2)]	92.3	99.2	99.1	97.1	84.7	92.6	85.6													
CCOC(=O)OC1=C(c2cc(C)ccc2C)C(=O)NC12CCC(OC)CC2 (stereo not shown) [Example (I-4)]								75	87	90	94.7	100	96.9	98.8	95	98.7	55	97.9	98.9	98.3
O=[N+]([O-])NC1=NCCN1Cc1ccc(Cl)nc1 [imidacloprid, reference compound]	99.6	99.5	99	83.5	75.8	67.2	69.4	89	96	96	98.2	100	93.6	92.5	99	97.6	26	98.4	99.2	98.6
